Laboratory results as given in patent US9056102B2, “VEGF-activated trail ligands” (The Regents of the University of California, priority 2005, dated 2015).

B1: R1[D2]FasL: Second domain of human VEGFR1 (amino acids 129 to 230) fused via ARGTS linker to hFasL amino acids 139 to 281 (protein)
chain: MSALLILALVGAAVADYKDDDDKLAAASDTGRPFVEMYSEIPEIIHMTEGRELVIPCRVTSPNITVTLKKFPLDTLIPDGKRIIWDSRKGFIISNATYKEIGLLTCEATVNGHLYKTNYLTHRQTNTIIARGTSEKKELRKVAHLTGKSNSRSMPLEWEDTYGIVLLSGVKYKKGGLVINETGLYFVYSKVYFRGQSCNNLPLSHKVYMRNSKYPQDLVMMEGKMMSYCTTGQMWARSSYLGAVFNLTSADHLYVNVSELSLVNFEESQTFFGLYKL
modifications: FLAG tag, preprotrypsin leader

How the values were obtained:
[1] = system: U87MG human glioblastoma cells; experiment: Potentiation of R2FasL by chemotherapeutic agents, resazurin cell viability assay; type: cell-based; conditions: 72 hours drug (Bis VIII 1 μM, camptothecin 20 nM, etoposide 5 μM), then R2FasL 10 μL/well for 40 hours
Procedure: U87MG human glioblastoma cells were plated in 96-well plates in 100 μL of complete medium with 10% fetal calf serum at 25,000 cells/well. Forty-eight hours later cells were treated with either bisindolylmaleimide VIII (Bis VIII, final concentration 1 μM), camptothecin (final concentration 20 nM), etoposide (final concentration 5 μM), or DMSO vehicle (1 μL/well). Bis VIII, camptothecin, and etoposide (all from Biomol) were dissolved in DMSO and added at 1 μL/well. After 72 hours of drug exposure, cells were treated with FLAG antibody affinity-purified R2FasL solution (10 μL/well), and incubated for an additional 40 hours. Cell viability and cytotoxicity were assayed using the resazurin assay and the LDG release assay, respectively, as described above.

[2] = system: Jurkat E6.1 human T cells; experiment: Jurkat cell viability, resazurin (AlamarBlue) assay; type: cell-based
Procedure: Conditioned medium (0.001, 0.01, 0.1, 1, or 10 μL) from Cos7 cells transfected with pFLAG/R1[D2]FasL vector was added in the absence or presence of rhVEGF-165 (final concentration 2 nM). Twenty-two hours later cell viability was assayed using the resazurin assay (AlamarBlue reagent from BioSource). Conversion of AlamarBlue substrate to product by viable cells was determined by adding 20 μL of AlamarBlue to each well and measuring absorbance at 540 nm and […]. Calculation of % conversion of substrate to product was performed according to the manufacturer's protocol.
To investigate which growth factors activate R1[D2]FasL the following experiment was performed. […] All growth factors were used at a final concentration of 10 nM, and were from Peprotech or R&D Systems. Nineteen hours later cell viability was assayed using the resazurin assay as described above.
In a similar experiment, the concentration of the growth factors tested was varied. […] Conditioned medium from Cos7 cells transfected with either pFLAG/R2FasL vector or empty pFLAG vector was added (1 μL/well), in the absence or presence of rhVEGF-165 or rmVEGF-165 at the final concentrations of 0.001, 0.01, 0.1, 1, and 10 nM. Eighteen hours later cell viability was assayed using the resazurin assay as described herein.
To determine the ED50 for hVEGF-165 on R1[D2]FasL the following experiment was performed. […] Conditioned medium from Cos7 cells transfected with pFLAG/R1[D2]FasL vector was added (2 μL/well), in the absence or presence of rhVEGF-165 at 0, 0.01, 0.1, 1, 10, 100, 1,000, or 10,000 nM. Nineteen hours later cell viability was assayed using the resazurin assay as described above.
In a similar experiment the ED50 for hVEGF-165 on R2FasL was determined. […] Conditioned medium from Cos7 cells transfected with pFLAG/R2FasL vector was added in the volumes indicated, in the absence or presence of rhVEGF-165 at the final concentrations of […], 0.2 and 2 nM. Eighteen hours later cell viability was assayed using the resazurin assay. The ED50 for rhVEGF-165 was between 20 pM and 200 pM (FIG. 21B).

Molecule | potentiation of R2FasL apoptotic activity (cell viability) [1] | induction of apoptosis (cell viability) ([2]; 0.001-10 μL conditioned medium, absence or presence of 2 nM rhVEGF-165, 22 hours) | activation by growth factors (cell viability) ([2]; 2 μL/well conditioned medium, rhVEGF-165, rmVEGF-164, rhVEGF-121, rhVEGF-165/rhPlGF-129 heterodimer, rhPlGF-129, each 10 nM, 19 hours)
COc1cc([C@@H]2c3cc4c(cc3[C@@H](O[C@@H]3O[C@@H]5CO[C@@H](C)O[C@H]5[C@H](O)[C@H]3O)[C@H]3COC(=O)[C@H]23)OCO4)cc(OC)c1O [etoposide] | Potentiation of R2FasL apoptotic activity | – | –
Cn1cc(C2=C(c3cn(CCCN)c4ccccc34)C(=O)NC2=O)c2ccccc21 [BisVIII, bisindolylmaleimide VIII] | Potentiation of R2FasL apoptotic activity | – | –
B1 | – | induces apoptosis in a VEGF-dependent manner | activated by all growth factors tested
